Test results: US6193954A, “Formulations for pulmonary delivery of dopamine agonists” (Abbott Laboratories, priority 1997, dated 2001)
Where a name gives a salt, the structure may show the parent alone.

What was measured:
[1] = Dispersion quality of MDI formulations (visual suspension quality after 24 hours); type: physicochemical; details: HFC-134a
Description: A determination of the dispersion quality of several MDI formulations prepared with HFA-134a was conducted as follows: Pluronic® L44 (BASF Corp., Parsippany, N.J.), drug and excipients being formulated were combined in the amounts shown in appropriate transparent aerosol containers (vials). The vials were crimped using a 100 μL Valois metered valve and charged with approximately 10 mL of HFC-134a. The container was shaken for about 30 minutes to blend the ingredients. The dispersion quality in each preparation was evaluated visually after 24 hours using the following criteria:
Poor: Phase separation; top phase clear, bottom phase containing solids
Fair: Partial phase separation; cloudiness in the top phase
Good: Grainy appearance; no phase separation
Excellent: Milky homogeneous appearance; no phase separation

[2] = Bioavailability of MDI compositions in dogs, inhalation vs intravenous (plasma diol); type: in vivo, beagle dog; details: dog
Description: The aerosol sprays were delivered anteriorly via a tracheal stoma in each subject animal (beagle dog).

[3] = Intratracheal administration of liquid formulation to tracheotomized dogs; type: in vivo; details: 0.1 mg/kg (approximately 0.5 ml), mannitol/water solution
Description: The viscosity of the administered solution was similar to water and the dose was squirted into the tube via pressure from a syringe filled with the liquid formulation. This formlation would not be administered through nasal or mouth means.
The solution used in the intratracheal administration contained the following:
Compound of example 1 6.9 mg/ml
with water for Injection as the solvent.
The above percentages may be varied by one of ordinary skill in the art to provide various dosages and/or ratios of the above excipients or compounds.

## CCCc1cc2c(s1)CN[C@@H]1CCc3cc(OC(C)=O)c(OC(C)=O)cc3[C@@H]21 [Compound of Example 1, (5aR-trans)-4,5,6,7,11b-hexahydro-2-propylbenzo[f]thieno[2,3-c]quinoline-9,10-diol, diacetate (ester) hydrochloride]
[1]; 20 mg drug, 0 Pluronic L44, 0 tocopherol acetate
  Suspension Quality: good
[1]; 20 mg drug, 3 Pluronic L44, 0 tocopherol acetate
  Suspension Quality: good
[1]; 20 mg drug, 3 Pluronic L44, 2 mg tocopherol acetate
  Suspension Quality: good
[1]; 20 mg drug, 5 Pluronic L44, 0 tocopherol acetate
  Suspension Quality: good
[1]; 20 mg drug, 5 Pluronic L44, 2 mg tocopherol acetate
  Suspension Quality: good
[1]; 40 mg drug, 0 Pluronic L44, 0 tocopherol acetate
  Suspension Quality: good
[1]; 40 mg drug, 3 Pluronic L44, 0 tocopherol acetate
  Suspension Quality: good
[1]; 40 mg drug, 3 Pluronic L44, 2 mg tocopherol acetate
  Suspension Quality: good
[1]; 40 mg drug, 5 Pluronic L44, 0 tocopherol acetate
  Suspension Quality: good
[1]; 40 mg drug, 5 Pluronic L44, 2 mg tocopherol acetate
  Suspension Quality: good
[2]; inhalation
  lung absorption following inhalation delivery vs I.V. administration: occurs more efficiently than I.V. administration
[2]; suspended in HFC-134a
  absorption upon delivery to the lungs: well absorbed upon delivery to the lungs
[3]
  delivery on intratracheal administration: effectively delivered
